Conditions: 303.15 K, Liquid, Vibrating tube method

CCCCCCCC(=O)OCC(COC(=O)CCCCCCC)(COC(=O)CCCCCCC)COC(=O)CCCCCCC [pentaerythritol tetraoctanoate]
Conditions	mass density [kg/m3]
28411 kPa	972
28450 kPa	971.9
28485 kPa	972
28563 kPa	972.1
28635 kPa	972
28718 kPa	972.1
28794 kPa	972.2
28833 kPa	972.2
28858 kPa	972
28881 kPa	972.2
28903 kPa	972.2
28932 kPa	972.2
28954 kPa	972.3
28977 kPa	972.2
29007 kPa	972.1
29030 kPa	972.2
29057 kPa	972.3
29081 kPa	972.3
29107 kPa	972.3
29129 kPa	972.3
29159 kPa	972.2
29182 kPa	972.4
29208 kPa	972.2
29237 kPa	972.4
29263 kPa	971.8
29291 kPa	972.4
29316 kPa	972.4
29341 kPa	972.6
29366 kPa	972.4
29397 kPa	972.5
29422 kPa	972.5
29447 kPa	972.5
29476 kPa	972.5
29501 kPa	972.6
29527 kPa	972.6
29551 kPa	972.5
29579 kPa	972.5
29610 kPa	972.6
29627 kPa	972.6
29648 kPa	972.6
29671 kPa	972.6
29696 kPa	972.7
29725 kPa	972.7
29750 kPa	972.6
29775 kPa	972.6
29807 kPa	972.8
29827 kPa	972.7
29857 kPa	972.7
29882 kPa	972.8
29912 kPa	972.7
29937 kPa	972.6
29963 kPa	972.7
29993 kPa	972.9
30018 kPa	972.7
30044 kPa	972.8
30069 kPa	972.8
30100 kPa	972.9
30125 kPa	972.8
30151 kPa	972.8
30183 kPa	972.9
30209 kPa	973
30234 kPa	973
30260 kPa	973
30291 kPa	972.9
30317 kPa	973
30343 kPa	972.9
30374 kPa	973
30400 kPa	972.9
30431 kPa	973.1
30457 kPa	973
30483 kPa	973.1
30510 kPa	973.1
30541 kPa	973
30568 kPa	972.9
30595 kPa	973.1
30626 kPa	973.2
30652 kPa	973.1
30685 kPa	973.2
30711 kPa	973.2
30738 kPa	973.3
30765 kPa	973.1
30797 kPa	973.2
30824 kPa	973.2
30852 kPa	973.1
30884 kPa	973.2
30911 kPa	973.4
30938 kPa	973.2
30971 kPa	973.2
30998 kPa	973.3
31025 kPa	973.3
31057 kPa	973.4
31085 kPa	973.5
31113 kPa	973.5
31145 kPa	973.5
31172 kPa	973.6
31206 kPa	973.4
31234 kPa	973.5
31261 kPa	973.5
31290 kPa	973.5
31323 kPa	973.5
31351 kPa	973.5
31380 kPa	973.6
31413 kPa	973.5
31442 kPa	973.6
31469 kPa	973.7
31503 kPa	973.6
31532 kPa	973.7
31560 kPa	973.7
31589 kPa	973.6
31624 kPa	973.7
31653 kPa	973.6
31681 kPa	973.8
31715 kPa	973.8
31744 kPa	973.7
31773 kPa	973.7
31808 kPa	973.8
31836 kPa	973.7
31865 kPa	973.8
31900 kPa	973.8
31929 kPa	973.8
31958 kPa	973.8
31994 kPa	973.8
32025 kPa	973.9
32055 kPa	973.9
32084 kPa	973.8
32120 kPa	973.9
32150 kPa	974
32179 kPa	973.9
32215 kPa	973.9
32244 kPa	974
32274 kPa	974
32311 kPa	974
32340 kPa	974
32370 kPa	974.1
32407 kPa	974
32432 kPa	974.1
32469 kPa	974.1
32499 kPa	974.2
32535 kPa	974.2
32566 kPa	974.2
32596 kPa	974.2
32626 kPa	974.2
32663 kPa	974.2
32693 kPa	974.1
32730 kPa	974.3
32761 kPa	974.3
32792 kPa	974.3
32829 kPa	974.3
